Laboratory results reported in US12559474B2, “Triazine derivatives having virus replication inhibitory activity and pharmaceutical composition comprising the same” (priority 2021, dated 2026).
Read-outs that look alike come from different tables or passages of the source.

Experiments:
SARS-CoV-2 = assay: microbe, parasite or virus in culture; format: cell-based; settings: Severe acute respiratory syndrome coronavirus 2, VeroE6/TMPRSS2, 72 h, 50% SARS-CoV-2 infected cell death inhibitory concentration, VeroE6/TMPRSS2 cells, 3 days culture
SARS-CoV-2 3CL protease = SARS-CoV-2 3CL protease (Severe acute respiratory syndrome coronavirus 2, UniProt P0DTD1); assay: biochemical; settings: 50% SARS-CoV-2 3CL protease inhibitory concentration, read-out: IC50

| Compound | EC50 (SARS-CoV-2; class symbols) [nM] | IC50 (SARS-CoV-2 3CL protease; given as class symbols) [nM] | EC50 (SARS-CoV-2; CellTiter-Glo 2.0) [nM] | IC50 (SARS-CoV-2 3CL protease; RapidFire MS) [nM] |
| --- | --- | --- | --- | --- |
| COCc1cncc(-n2c(=O)nc(Nc3ccc4c(c3)CCO4)n(Cc3ccc(F)c(C#N)c3)c2=O)c1 [II-0271] | 1000 to 10000 | < 100 | – | – |
| Cc1cncc(-n2c(=O)nc(Nc3cc4c(cc3Cl)nc(C)n4C)n(Cc3ccc(F)c(C#N)c3)c2=O)c1 [II-0350] | 1000 to 10000 | < 100 | – | – |
| N#Cc1cc(Cn2c(Nc3ccc4c(c3)CCO4)nc(=O)n(-c3cncc4ccccc34)c2=O)ccc1F [Compound I-0351] | – | – | 74.7 | 4.3 |
| CNC(=O)Cn1cc2cc(Nc3nc(=O)n(-c4cncc5ccccc45)c(=O)n3Cc3cc(F)c(F)cc3F)c(Cl)cc2n1 [II-0556] | 1000 to 10000 | < 100 | – | – |
| Cc1cncc(-n2c(=O)nc(Nc3cc4cn(C)nc4cc3Cl)n(Cc3cc(F)c(F)cc3CCC(C)(C)O)c2=O)c1 [II-0073] | 1000 to 10000 | < 100 | – | – |
| COC(=O)c1cncc(-n2c(=O)nc(Nc3cc4cn(C)nc4cc3Cl)n(Cc3cc(F)c(F)c(F)c3)c2=O)c1 [II-0275] | – | – | 7280 | 360 |
| COc1ccc(Nc2nc(=O)n(-c3cncc(C)c3)c(=O)n2Cc2cc(F)c(F)c(F)c2)cc1 [Compound I-0374] | 1000 to 10000 | < 100 | – | – |
| Cn1cnc(Cn2c(=O)nc(Nc3cc4cn(C)nc4cc3Cl)n(Cc3cc(F)c(F)c(C#N)c3)c2=O)n1 [II-0184] | 1000 to 10000 | < 100 | – | – |
| CNc1nc2ccc(Nc3nc(=O)n(-c4cncc(Cl)c4)c(=O)n3Cc3cc(C#N)c(F)cc3C)cc2s1 [II-0396] | < 1000 | < 100 | – | – |
| Cc1cncc(-n2c(=O)nc(Nc3ccc4nn(C)c(C)c4c3)n(Cc3ccc(F)c(C#N)c3)c2=O)c1 [II-0264] | 1000 to 10000 | < 100 | – | – |
| Cn1cc2cc(Nc3nc(=O)n(Cc4ccc[nH]c4=O)c(=O)n3Cc3cc(F)cc(Cl)c3)c(Cl)cc2n1 [Compound I-0008] | 1000 to 10000 | < 100 | – | – |
| COc1cc(F)c(C#N)cc1Cn1c(Nc2cc3cn(C)nc3cc2Cl)nc(=O)n(-c2cncc(C)c2)c1=O [II-0093] | – | – | 487 | 12 |
| CC[C@@H](Nc1nc(=O)n(Cc2ccc[nH]c2=O)c(=O)n1Cc1cc(F)c(F)c(F)c1)C(F)(F)F [II-0370] | – | – | 28900 | 520 |
| Cc1nc2cc(Cl)c(Nc3nc(=O)n(Cc4ncn(C)n4)c(=O)n3Cc3cc(F)c(F)c(F)c3)cc2n1C [Compound I-0422] | 1000 to 10000 | < 100 | – | – |
| Cn1cnc(Cn2c(=O)nc(Nc3cc4cn(C)nc4cc3Cl)n(Cc3cc(F)cc(Cl)c3)c2=O)n1 [II-0051] | 1000 to 10000 | < 100 | – | – |
| CNc1nc2ccc(Nc3nc(=O)n(Cc4cc(Cl)c[nH]c4=O)c(=O)n3Cc3cc(F)c(F)c(F)c3)cc2s1 [II-0041] | 1000 to 10000 | < 100 | – | – |
| CN(C)C(=O)Cn1cc2cc(Nc3nc(=O)n(-c4cncc5ccccc45)c(=O)n3Cc3cc(F)c(F)cc3F)c(Cl)cc2n1 [II-0002] | 1000 to 10000 | < 100 | – | – |
| Cc1cncc(-n2c(=O)nc(Nc3cc4cn(C)nc4cc3Cl)n(Cc3cc(C#N)ccc3Cc3cccc(Cl)c3)c2=O)c1 [II-0181] | < 1000 | < 100 | – | – |
| Cc1ccc(C#N)cc1Cn1c(Nc2cc3cn(C)nc3cc2F)nc(=O)n(-c2cncc(Cl)c2)c1=O [II-0097] | < 1000 | < 100 | – | – |
| Cn1nc2cc(Cl)c(Nc3nc(=O)n(-c4cncc5ccccc45)c(=O)n3Cc3cc(F)c(F)c(F)c3)cc2c1F [II-0462] | < 1000 | < 100 | – | – |
| Cc1cncc(-n2c(=O)nc(Nc3cc4cn(C)nc4cc3Cl)n(Cc3cc(C#N)ccc3C(F)F)c2=O)c1 [II-0333] | < 1000 | < 100 | – | – |
| Cn1cc2cc(Nc3nc(=O)n(Cc4cc5ccsc5[nH]c4=O)c(=O)n3Cc3ccc(F)c(C#N)c3)c(Cl)cc2n1 [II-0008] | 1000 to 10000 | < 100 | – | – |

| Compound | EC50 (SARS-CoV-2; class symbols) [nM] | IC50 (SARS-CoV-2 3CL protease; given as class symbols) [nM] | EC50 (SARS-CoV-2; CellTiter-Glo 2.0) [nM] | IC50 (SARS-CoV-2 3CL protease; RapidFire MS) [nM] |
| --- | --- | --- | --- | --- |
| Cc1cncc(-n2c(=O)nc(Nc3ccc4nn(CC(F)F)cc4c3)n(Cc3cc(C#N)ccc3Cl)c2=O)c1 [II-0570] | – | – | 600 | 4.4 |
| Cn1cnc(Cn2c(=O)nc(Nc3cc4cn(CC(=O)OC(C)(C)C)nc4cc3Cl)n(Cc3cc(F)c(F)c(Cl)c3)c2=O)n1 [II-0311] | 1000 to 10000 | < 100 | – | – |
| Cn1cnc(Cn2c(=O)nc(Nc3cc4cn(C)nc4cc3Cl)n(Cc3cccc4ccccc34)c2=O)n1 [II-0223] | – | – | 22500 | 780 |
| Cc1cncc(-n2c(=O)nc(Nc3cc4cn(C)nc4cc3Cl)n(Cc3cccc(F)c3C)c2=O)c1 [II-0171] | < 1000 | < 100 | – | – |
| CNc1nc2cc(F)c(Nc3nc(=O)n(-c4cncc(C)c4)c(=O)n3Cc3cc(C#N)ccc3C)cc2s1 [II-0419] | < 1000 | < 100 | – | – |
| CC(C)(O)Cn1cc2cc(Nc3nc(=O)n(Cc4ccc[nH]c4=O)c(=O)n3Cc3cc(F)c(F)c(F)c3)c(Cl)cc2n1 [Compound I-0447] | 1000 to 10000 | < 100 | – | – |
| Cn1cnc(Cn2c(=O)nc(Nc3cc4cn(C)nc4cc3Cl)n(Cc3cc(F)c(F)c(F)c3F)c2=O)n1 [Compound I-0483] | – | – | 395 | 9.8 |
| Cc1cc(F)c(F)cc1Cn1c(Nc2cc3cn(C)nc3cc2Cl)nc(=O)n(Cc2ncn(C)n2)c1=O [II-0406] | < 1000 | < 100 | – | – |
| N#Cc1cc(Cn2c(Nc3ccc4c(c3)CCO4)nc(=O)n(-c3cncc(F)c3)c2=O)ccc1F [Compound I-0350] | < 1000 | < 100 | – | – |
| Cn1cnc(Cn2c(=O)nc(Nc3cc4c(C5CC5)n(C)nc4cc3Cl)n(Cc3cc(F)c(F)cc3F)c2=O)n1 [II-0446] | 1000 to 10000 | < 100 | – | – |
| CNc1nc2ccc(Nc3nc(=O)n(-c4cncc(C)c4)c(=O)n3Cc3cc(F)c(F)c(C#N)c3)cc2s1 [II-0397] | < 1000 | < 100 | – | – |
| Cn1cnc(Cn2c(=O)nc(Nc3cc4cccnc4cc3Cl)n(Cc3cc(F)c(F)cc3F)c2=O)n1 [II-0039] | 1000 to 10000 | < 100 | – | – |
| N#Cc1cc(Cn2c(Nc3ccc4nc(NCC(F)F)sc4c3)nc(=O)n(-c3cncc(Cl)c3)c2=O)ccc1F [II-0129] | 1000 to 10000 | < 100 | – | – |
| CC(C)n1cc2cc(Nc3nc(=O)n(Cc4cccnc4O)c(=O)n3Cc3cc(F)c(F)c(F)c3)c(Cl)cc2n1 [Compound I-0366] | 1000 to 10000 | < 100 | – | – |
| Cn1cnc(Cn2c(=O)nc(Nc3cc4cn(CC(F)F)nc4cc3F)n(Cc3cc(F)c(F)cc3F)c2=O)n1 [II-0359] | 1000 to 10000 | < 100 | – | – |
| C[C@H](O)Cn1cc2cc(Nc3nc(=O)n(Cc4cc(Cl)c[nH]c4=O)c(=O)n3Cc3cc(F)c(F)c(F)c3)c(Cl)cc2n1 [Compound I-0402] | 1000 to 10000 | < 100 | – | – |
| Cn1cnc(Cn2c(=O)nc(Nc3cc4sc(N)nc4cc3Cl)n(Cc3cc(Cl)c(F)cc3F)c2=O)n1 [II-0529] | < 1000 | < 100 | – | – |
| Cc1cncc(-n2c(=O)nc(Nc3cc4sc(NCC(F)F)nc4cc3Cl)n(Cc3cc(F)c(F)c(C#N)c3)c2=O)c1 [II-0498] | 1000 to 10000 | < 100 | – | – |
| Cn1cnc(Cn2c(=O)nc(Nc3cc4cn(C)nc4cc3Cl)n(Cc3ccc(F)cc3Br)c2=O)n1 [II-0218] | 1000 to 10000 | < 100 | – | – |
| Cn1cnc(Cn2c(=O)nc(Nc3cc4cn(CCO)nc4cc3Cl)n(Cc3cc(Cl)c(F)cc3F)c2=O)n1 [II-0300] | 1000 to 10000 | < 100 | – | – |
| COc1ccc(Nc2nc(=O)n(Cc3ccc[nH]c3=O)c(=O)n2Cc2ccc(F)c(C#N)c2)c(F)c1 [Compound I-0332] | 1000 to 10000 | < 100 | – | – |
